Measured values: patent publication US20130189347A1, “DISEASE TREATMENT DRUG” (priority 2010, published 2013)

Legend:
B16 melanoma cells [1] = experiment: Early-stage cancer: rate of increase in tumor volume in B16 melanoma-transplanted mice; assay type: in vivo, ICR mice; settings: CDDP 0.9 mM, 0.2 ml/mouse/dose via tail vein
Description: Five female, six-week-old IRC mice were assigned per group.
iron porphyrin complex/PLLA60wt%-F88 micelles (polymer capsule, 5 mM/0.7 wt %) were used.
As the sample drug (concentration) of the comparative example, CDDP (0.9 mM) was used.
(§1) B16 melanoma cells were used.
The amount of cancer cells injected was 1×10^5/mouse/0.05 ml, which is 1/10 that for end-stage cancer.
(§2) Anchoring of the cancer was confirmed on the 10th day after cancer cell transplantation. The mice were separated into five mice each for the required number of groups (three groups: two groups for the sample drugs and one control group). At the same time, the short diameter and the long diameter of the cancer cell volume in each mouse were measured every two days using calipers. The following equation was calculated:
(§3) [tumor volume]=½×[long diameter]×[short diameter]^2

B16 melanoma cells [2] = experiment: End-stage cancer: rate of increase in tumor volume in B16 melanoma-transplanted mice; assay type: in vivo, C57BL/6CrSlC mice
Description: iron porphyrin complex/pH-sensitive liposomes (5 mM/36 mM) and iron porphyrin complex/DPPC-PEG liposomes (5 mM/36 mM) were used […]
as §1
as §2, with “groups (four” for “groups (three”, “groups: three” for “groups: two”
as §3

[3] = End-stage cancer experiment: weight fluctuation, death and side effects
Description: Five female, six-week-old C57BL/6CrSlC mice were assigned per group.
B16 melanoma dispersed in phosphate buffered saline (PBS) was injected into the foot pads (sole) of the mice (C57BL/6, female, six-weeks-old), and cancer was transplanted. The amount of cancer cells injected was 1×10^6/mouse/0.05 ml. The site of injection was within the limited area of the foot pad, in an environment where numerous fine blood vessels, such as capillaries, are present.
In addition, administration of the sample drugs (administered amount: 0.1 ml/mouse/dose) was started on the 13th day after cancer cell transplantation. Drug administration was conducted a total of four times, via tail vein every four days. The weight of each mouse was measured every two days.

SMILES | suppression of increase in tumor volume (B16 melanoma cells [1]) | observation of the transplanted foot (B16 melanoma cells [2]) | course of tumor volume (B16 melanoma cells [2]; four days after administration of the drug) | mice that died ([3]; during 20 days of observation, five mice per group, MMC 0.9 mM, 0.5 mM) | weight increase and decrease (weight fluctuation) ([3]; end-stage cancer, weight measured every two days, FIG. 5)
[NH2][Pt]([NH2])([Cl])[Cl] [CDDP, Cisplatin] | about ten |  |  |  | 
CO[C@@]12[C@H](COC(N)=O)C3=C(C(=O)C(C)=C(N)C3=O)N1C[C@@H]1N[C@@H]12 [MMC, mitomycin] |  | necrosis occurred in the foot itself | sudden increase in tumor volume | two | severe weight fluctuations
